Where “and” joins values, the source holds several entries; their conditions need not be identical. Equal entries are not always repeated. Toxic doses and inconclusive results are not listed.
Tested on: BDF1 mice, P388 leukemia ip, median survival T/C
Assay: NCI In Vivo Anticancer Drug Screen. Data for tumor model P388 Leukemia (intraperitoneal) in B6D2F1 (BDF1) mice
Conditions: endpoint: median survival time, higher = longer survival
How it was run: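 Steps: implant the tumour, treat one group with compound and another with vehicle, record survival, then divide treated by control.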

For `Cc1cc(O)c2cc3c(O)c(O)ccc3cc2c1`, the T/C (dose: 0.5 mg/kg/injection, schedule: Q01DX010 (ip), vehicle: saline) was 100 % of control, the T/C (dose: 1.0 mg/kg/injection, schedule: Q01DX010 (ip), vehicle: saline) was 109 % of control and the T/C (dose: 2.0 mg/kg/injection, schedule: Q01DX010 (ip), vehicle: saline) was 118 % of control and 122 % of control. The T/C (dose: 4.0 mg/kg/injection, schedule: Q01DX010 (ip), vehicle: saline) was 122 % of control, the T/C (dose: 31.3 micrograms/kg/injection, schedule: Q01DX010 (ip), vehicle: saline) was 109 % of control and the T/C (dose: 125.0 micrograms/kg/injection, schedule: Q01DX010 (ip), vehicle: saline) was 90 % of control. For the same compound, the T/C (dose: 250.0 micrograms/kg/injection, schedule: Q01DX010 (ip), vehicle: saline) was 90 % of control.
In the case of `CC1OC(OC2CCCc3c(O)c4c(c(O)c32)C(=O)c2ccccc2C4=O)CC(N)C1O` (stereo unspecified), the T/C (dose: 0.25 mg/kg/injection, schedule: Q01DX009 (ip), vehicle: water) is reported as 110 % of control, the T/C (dose: 0.5 mg/kg/injection, schedule: Q01DX009 (ip), vehicle: water) is reported as 105 % of control and the T/C (dose: 1.0 mg/kg/injection, schedule: Q01DX009 (ip), vehicle: water) is reported as 98 % of control. For the same compound, the T/C (dose: 2.0 mg/kg/injection, schedule: Q01DX009 (ip), vehicle: water) was 110 % of control and 115 % of control, the T/C (dose: 4.0 mg/kg/injection, schedule: Q01DX009 (ip), vehicle: water) was 108 % of control and 113 % of control and the T/C (dose: 8.0 mg/kg/injection, schedule: Q01DX009 (ip), vehicle: water) was 108 % of control. For the same compound, the T/C (dose: 16.0 mg/kg/injection, schedule: Q01DX009 (ip), vehicle: water) was 105 % of control.
In the case of `CC(C)(C)OC(=O)NC(CC(Cc1ccccc1)C(N)=O)C(=O)N1CCCC1C(=O)OCc1ccccc1` (stereo unspecified), the T/C (dose: 50.0 mg/kg/injection, schedule: Q01DX005 (ip), vehicle: saline with Tween-80) is reported as 102 % of control, the T/C (dose: 100.0 mg/kg/injection, schedule: Q01DX005 (ip), vehicle: saline with Tween-80) is reported as 95 % of control and the T/C (dose: 200.0 mg/kg/injection, schedule: Q01DX005 (ip), vehicle: saline with Tween-80) is reported as 98 % of control.
For `CC1CC[N-]CC1.CC1CC[N-]CC1.CC1CC[N-]CC1.CC1CC[N-]CC1.[Pt+4]`, the T/C (dose: 0.09 mg/kg/injection, schedule: Q01DX009 (ip), vehicle: saline) was 88 % of control, the T/C (dose: 0.19 mg/kg/injection, schedule: Q01DX009 (ip), vehicle: saline) was 93 % of control and the T/C (dose: 0.23 mg/kg/injection, schedule: Q01DX009 (ip), vehicle: saline) was 88 % of control. The T/C (dose: 0.25 mg/kg/injection, schedule: Q01DX009 (ip), vehicle: saline) was 102 % of control, the T/C (dose: 0.39 mg/kg/injection, schedule: Q01DX009 (ip), vehicle: saline) was 92 % of control and the T/C (dose: 0.5 mg/kg/injection, schedule: Q01DX009 (ip), vehicle: saline) was 102 % of control. The T/C (dose: 0.65 mg/kg/injection, schedule: Q01DX009 (ip), vehicle: saline) was 92 % of control, the T/C (dose: 0.78 mg/kg/injection, schedule: Q01DX009 (ip), vehicle: saline) was 88 % of control and 105 % of control and the T/C (dose: 1.0 mg/kg/injection, schedule: Q01DX009 (ip), vehicle: saline) was 112 % of control. The T/C (dose: 1.56 mg/kg/injection, schedule: Q01DX009 (ip), vehicle: saline) was 90 % of control, the T/C (dose: 1.56 mg/kg/injection, schedule: Q04DX003 (ip), vehicle: saline) was 109 % of control and the T/C (dose: 2.0 mg/kg/injection, schedule: Q01DX009 (ip), vehicle: saline) was 103 % of control. The T/C (dose: 3.12 mg/kg/injection, schedule: Q04DX003 (ip), vehicle: saline) was 95 % of control.
With `CCNC(C)(C)C(SSS)c1ccco1` (stereo unspecified) the T/C (dose: 100.0 mg/kg/injection, schedule: Q04DX003 (ip), vehicle: gum acacia) was 100 % of control and 116 % of control, the T/C (dose: 134.0 mg/kg/injection, schedule: Q01DX009 (ip), vehicle: gum acacia) was 100 % of control and the T/C (dose: 200.0 mg/kg/injection, schedule: Q04DX003 (ip), vehicle: gum acacia) was 109 % of control. For the same compound, the T/C (dose: 400.0 mg/kg/injection, schedule: Q04DX003 (ip), vehicle: gum acacia) was 91 % of control and 122 % of control.
For `C[n+]1c(-c2cc(N)cc(C(F)(F)F)c2)c2cc(N)ccc2c2ccc(N)cc21`, the T/C (dose: 6.25 mg/kg/injection, schedule: Q01DX009 (ip), vehicle: water) was 150 % of control, the T/C (dose: 12.5 mg/kg/injection, schedule: Q01DX009 (ip), vehicle: water) was 181 % of control and the T/C (dose: 25.0 mg/kg/injection, schedule: Q01DX009 (ip), vehicle: water) was 95 % of control.
`O=C1N=C2C=CC=CN2CC1O` (stereo unspecified) was tested, and the T/C (dose: 100.0 mg/kg/injection, schedule: Q04DX003 (ip), vehicle: saline with Tween-80) was 104 % of control, the T/C (dose: 200.0 mg/kg/injection, schedule: Q04DX003 (ip), vehicle: saline with Tween-80) was 112 % of control and the T/C (dose: 400.0 mg/kg/injection, schedule: Q04DX003 (ip), vehicle: saline with Tween-80) was 100 % of control.
`[CH3][Sn]([CH3])([Cl])[S]CCN` was tested, and the T/C (dose: 6.25 mg/kg/injection, schedule: Q01DX009 (ip), vehicle: saline) was 123 % of control.

Source: PubChem BioAssay AID328 (DTP/NCI, 2004)
